{
  "source": "ChEMBL document CHEMBL5032529",
  "about": "“Synthesis and evaluation of tetrahydroisoquinoline derivatives against Trypanosoma brucei rhodesiense” (Eur J Med Chem, 2021)",
  "key": {"[1]": {"test_system": "Trypanosoma brucei rhodesiense", "assay": "Antitrypanosomal activity against Trypanosoma brucei rhodesiense STIB900 assessed as parasite growth inhibition", "assay_type": "functional, organism-based"}, "[2]": {"test_system": "Trypanosoma brucei rhodesiense", "assay": "Antitrypanosomal activity against Trypanosoma brucei rhodesiense STIB900 assessed as parasite growth inhibition measured after 72 hrs by alamar blue dye based spectrofluorimetric analysis", "assay_type": "functional, organism-based", "settings": "STIB900, 72 h"}, "[3]": {"test_system": "Vero", "assay": "Cytotoxicity against African green monkey Vero cells assessed as reduction in cell viability measured after 72 hrs by SRB assay", "assay_type": "cell-based", "settings": "Chlorocebus sabaeus"}, "[4]": {"assay": "Selectivity index, ratio of IC50 for cytotoxicity against African green monkey Vero cells to IC50 for antitrypanosomal activity against Trypanosoma brucei rhodesiense STI B900", "assay_type": "toxicity, cell-based", "settings": "read-out: Ratio IC50"}, "[5]": {"assay": "Inhibition of Trypanosoma Trypanothione reductase in presence of NADPH by DTNB based colorimetric assay"}, "[6]": {"test_system": "Trypanosoma brucei", "assay": "Antitrypanosomal activity against bloodstream form of Trypanosoma brucei assessed as parasite growth inhibition incubated for 3 days by resazurin staining based assay", "assay_type": "functional, organism-based", "settings": "72 h"}},
  "note": "pEC50, pIC50: −log10 of the molar value.",
  "data": [
    {"compound": "C=C1C[C@H]2OC(=O)C(=C)[C@@H]2[C@H](OC(=O)/C(C)=C/C)C[C@@]2(C)OC1=CC2=O", "values": [
      {"measurement": "pIC50", "setting": "[1]", "value": 7.82}
    ]},
    {"compound": "OC1CNCc2c(OCc3cccc(Br)c3)cccc21", "note": "(stereo unspecified)", "values": [
      {"measurement": "pIC50", "setting": "[2]", "value": 5.59},
      {"measurement": "pIC50", "setting": "[3]", "value": 4.13},
      {"measurement": "selectivity ratio", "setting": "[4]", "value": 28.3}
    ]},
    {"compound": "CN1Cc2ccc(OCc3ccc(-c4ccccc4)cc3)cc2[C@H](OC(=O)c2ccccc2)C1", "values": [
      {"measurement": "pIC50", "setting": "[2]", "value": 4.79},
      {"measurement": "pIC50", "setting": "[3]", "value": 4.89},
      {"measurement": "selectivity ratio", "setting": "[4]", "value": 0.8}
    ]},
    {"compound": "Clc1ccc2c(c1)N(CCCN1CCN(CCCc3ccccc3)CC1)c1ccccc1S2", "values": [
      {"measurement": "pIC50", "setting": "[5]", "value": 6.12},
      {"measurement": "pEC50", "setting": "[6]", "value": 6.11}
    ]},
    {"compound": "OC1CNCc2c(OCc3ccc(Br)cc3)cccc21", "note": "(stereo unspecified)", "values": [
      {"measurement": "pIC50", "setting": "[2]", "value": 5.60},
      {"measurement": "pIC50", "setting": "[3]", "value": "< 4.30"},
      {"measurement": "selectivity ratio", "setting": "[4]", "value": "> 19.7"}
    ]},
    {"compound": "Cc1ccccc1COc1cccc2c1CNCC2O", "note": "(stereo unspecified)", "values": [
      {"measurement": "pIC50", "setting": "[2]", "value": 4.78},
      {"measurement": "pIC50", "setting": "[3]", "value": "< 4.00"},
      {"measurement": "selectivity ratio", "setting": "[4]", "value": "> 6.1"}
    ]},
    {"compound": "CN1Cc2ccc(OCc3ccc(-c4ccccc4)cc3)cc2[C@@H](OC(=O)c2ccccc2)C1", "values": [
      {"measurement": "pIC50", "setting": "[2]", "value": 4.79},
      {"measurement": "pIC50", "setting": "[3]", "value": 4.98},
      {"measurement": "selectivity ratio", "setting": "[4]", "value": 0.6}
    ]},
    {"compound": "OC1CNCc2c(OCCC3CCCCC3)cccc21", "note": "(stereo unspecified)", "values": [
      {"measurement": "pIC50", "setting": "[2]", "value": 5.70},
      {"measurement": "pIC50", "setting": "[3]", "value": 4.60},
      {"measurement": "selectivity ratio", "setting": "[4]", "value": 12.6}
    ]}
  ]
}
